Data as given in patent US10793892B2, “Method for detecting the presence of expanded spectrum β-lactamase-producing bacteria in a sample” (INSERM (INSTITUT NATIONAL DE LA SANTE ET DE LA RECHERCHE …, priority 2011, dated 2020).

Legend:
K. pneumoniae = test: ESBL NDP test using cultured strains; assay type: biochemical, Klebsiella pneumoniae; parameters: key: (+) and (−) referred to color change being, red to yellow or unchanged, respectively; (+) and (−) referred to color change being, red to yellow or unchanged, respectively
Procedure: (§1) Strains were isolated on Mueller-Hinton agar (Biorad, Marnes-la-Coquette, France) and incubated at 37° C. for 16 h to 24 h before performing the NDP rapid ESBL test as follows. One calibrated inoculated loop (10 μl) of the tested strain was resuspended in 150 μl of 20 mM Tris-HCl lysis buffer previously distributed in Microbead tubes (Ultraclean Microbial DNA isolation kit Bead Tubes, MO BIO Laboratories, Carlsbad, USA). Mechanical lysis of bacteria was performed by strong agitation of Microbead tubes using a vortex adapter (MO BIO Laboratories) for 30 min at room temperature. This bacterial suspension was centrifuged at 10,000×g at room temperature for 5 min. Thirty μl of the supernatant was mixed in a well of a 96-well tray with 100 μl of a 1 ml solution made of 3 mg of purified cefotaxime sodium salt (Sigma-Aldrich, Saint-Quentin-Fallavier, France) in a pH 7.8 phenol red solution. […]. The phenol red solution was made by taking 2 ml of a concentrated pH 8 phenol solution (made from a mixture of phenol red 0.5% in distilled water) to which 16.6 ml of distilled water was added. The pH value was then adjusted to a 7.8 value by adding drops of a 1 N NaOH solution. Mixture of the phenol red solution and the enzymatic suspension being tested was incubated at 37° C. for 30 min. Similarly, culture extracts were analyzed in wells containing cefotaxime and tazobactam (4 mg/ml). Other concentrations of tazobactam and other ß-lactamase inhibitors were tested giving less clear results (data not shown). […] This definition of test positivity will be applied throughout the study.

C. freundii [1] = test: ESBL NDP test using cultured strains; assay type: biochemical, Citrobacter freundii; parameters: key: (+) and (−) referred to color change being, red to yellow or unchanged, respectively; (+) and (−) referred to color change being, red to yellow or unchanged, respectively
Procedure: as §1

P. mirabilis = test: Susceptibility testing, MIC by Etest; assay type: cell-based, Proteus mirabilis
Procedure: (§2) Susceptibility testing was performed by determining MIC values using the Etest® (AB bioMérieux; Solna, Sweden) on Mueller-Hinton agar plates at 37° C. and results were recorded according to US guidelines (CLSI), as updated in 2012 (2). The breakpoints for cefotaxime are susceptible (S)≤1 and resistant (R)≥4 μg/ml, and for ceftazidime S≤4 and R≥16 μg/ml.

E. aerogenes [2] = test: Susceptibility testing, MIC by Etest; assay type: cell-based, Enterobacter aerogenes
Procedure: as §2

M. morganii = test: Susceptibility testing, MIC by Etest; assay type: cell-based, Morganella morganii; conditions: M. morganii Wild-type, chromosome-encoded cephalosporinase, n=2
Procedure: as §2

C. brakii = test: Susceptibility testing, MIC by Etest; assay type: cell-based; conditions: C. brakii Wild-type, chromosome-encoded cephalosporinase, n=1
Procedure: as §2

E. sakazakii = test: Susceptibility testing, MIC by Etest; assay type: cell-based; conditions: overexpressed chromosome-encoded cephalosporinase, n=1
Procedure: as §2

S. ficaria = test: Susceptibility testing, MIC by Etest; assay type: cell-based; conditions: S. ficaria Wild-type, chromosome-encoded cephalosporinase, n=1
Procedure: as §2

E. aerogenes [3] = test: ESBL NDP test using spiked blood cultures; assay type: biochemical, Enterobacter aerogenes; parameters: key: (+) and (−) referred to color change being, red to yellow or unchanged, respectively; (+) and (−) referred to color change being, red to yellow or unchanged, respectively
Procedure: (§3) Strains were isolated on Mueller-Hinton agar (Biorad, Marnes-la-Coquette, France) and incubated at 37° C. for 16 h to 24 h before performing the NDP rapid ESBL test as follows. One calibrated inoculated loop (10 μl) of the tested strain was resuspended in 150 μl of 20 mM Tris-HCl lysis buffer previously distributed in Microbead tubes (Ultraclean Microbial DNA isolation kit Bead Tubes, MO BIO Laboratories, Carlsbad, USA). Mechanical lysis of bacteria was performed by strong agitation of Microbead tubes using a vortex adapter (MO BIO Laboratories) for 30 min at room temperature. This bacterial suspension was centrifuged at 10,000×g at room temperature for 5 min. Thirty μl of the supernatant was mixed in a well of a 96-well tray with 100 μl of a 1 ml solution made of 3 mg of purified cefotaxime sodium salt (Sigma-Aldrich, Saint-Quentin-Fallavier, France) in a pH 7.8 phenol red solution. […]. […] Similarly, culture extracts were analyzed in wells containing cefotaxime and tazobactam (4 mg/ml). […]
(§4) Rapid detection of ESBL producers was attempted from spiked blood cultures which positivity was assessed using the BactAlert blood culture system (bioMérieux). […] Spiked blood cultures were made of 1×10^3 CFU of each strain and incubated 24 to 48 h before a positivity of the blood culture was detected by the BactAlert system. […]

C. freundii [4] = test: ESBL NDP test using spiked blood cultures; assay type: biochemical, Citrobacter freundii; parameters: key: (+) and (−) referred to color change being, red to yellow or unchanged, respectively; (+) and (−) referred to color change being, red to yellow or unchanged, respectively; conditions: C. freundii BG 1106 7767, Wild-type
Procedure: as §3, §4

SMILES: CO/N=C(\C(=O)N[C@@H]1C(=O)N2C(C(=O)O)=C(COC(C)=O)CS[C@H]12)c1csc(N)n1 [CTX, cefotaxime]
- ESBL NDP Test from: Colonies (K. pneumoniae; K. pneumoniae 09.127, SHV-2a): +
- ESBL NDP Test from: Colonies (K. pneumoniae; K. pneumoniae 09.138, TEM-3): +
- ESBL NDP Test from: Colonies (K. pneumoniae; K. pneumoniae 09.158, SHV-12): +
- ESBL NDP Test from: Colonies (K. pneumoniae; K. pneumoniae 09.162, TEM-52): +
- ESBL NDP Test from: Colonies (K. pneumoniae; K. pneumoniae 09.169, TEM-52): +
- ESBL NDP Test from: Colonies (K. pneumoniae; K. pneumoniae 09.181, SHV-2a): +
- ESBL NDP Test from: Colonies (K. pneumoniae; K. pneumoniae 09.190, SHV-2a): −
- ESBL NDP Test from: Colonies (K. pneumoniae; K. pneumoniae 09.200, TEM-3): +
- ESBL NDP Test from: Colonies (K. pneumoniae; K. pneumoniae 09.217, SHV-5): +
- ESBL NDP Test from: Colonies (K. pneumoniae; K. pneumoniae 09.45, SHV-12): +
- ESBL NDP Test from: Colonies (K. pneumoniae; K. pneumoniae 09.60, SHV-5): +
- ESBL NDP Test from: Colonies (K. pneumoniae; K. pneumoniae 09.99, SHV-2a): +
- ESBL NDP Test from: Colonies (K. pneumoniae; K. pneumoniae 10.159, CTX-M-3): +
- ESBL NDP Test from: Colonies (K. pneumoniae; K. pneumoniae ANG, DHA-1): −
- ESBL NDP Test from: Colonies (K. pneumoniae; K. pneumoniae BG 1202 5484, Penicillinase): −
- Test (color change) (K. pneumoniae; K. pneumoniae CTX-M-3, n=1): +
- Test (color change) (K. pneumoniae; K. pneumoniae CTX-M-14, n=3): +
- Test (color change) (K. pneumoniae; K. pneumoniae CTX-M-15, n=28): +
- Test (color change) (K. pneumoniae; K. pneumoniae DHA-1, n=1): −
- Test (color change) (K. pneumoniae; K. pneumoniae DHA-2, n=1): +
- ESBL NDP Test from: Colonies (K. pneumoniae; K. pneumoniae FOR, DHA-2): +
- Test (color change) (K. pneumoniae; K. pneumoniae GES-1, n=1): +
- ESBL NDP Test from: Colonies (K. pneumoniae; K. pneumoniae MEK, CTX-M-15): +
- ESBL NDP Test from: Colonies (K. pneumoniae; K. pneumoniae SHI, CTX-M-15): +
- Test (color change) (K. pneumoniae; K. pneumoniae SHV-2a, n=2): −
- Test (color change) (K. pneumoniae; K. pneumoniae SHV-2a, n=4): +
- Test (color change) (K. pneumoniae; K. pneumoniae SHV-5, n=2): +
- Test (color change) (K. pneumoniae; K. pneumoniae SHV-12, n=1): −
- Test (color change) (K. pneumoniae; K. pneumoniae SHV-12, n=2): +
- Test (color change) (K. pneumoniae; K. pneumoniae SHV-28, n=3): +
- Test (color change) (K. pneumoniae; K. pneumoniae TEM-3, n=3): +
- Test (color change) (K. pneumoniae; K. pneumoniae TEM-52, n=2): +
- Test (color change) (K. pneumoniae; K. pneumoniae Wild-type penicillinase, n=2): −
- ESBL NDP Test from: Colonies (C. freundii [1]; C. freundii BG 1106 7767, Wild-type): −
- Test (color change) (C. freundii [1]; C. freundii CTX-M-15, n=3): +
- Test (color change) (C. freundii [1]; C. freundii TEM-3, n=1): +
- Test (color change) (C. freundii [1]; C. freundii Wild-type, chromosome-encoded cephalosporinase, n=1): −
- MICs range (P. mirabilis; P. mirabilis ACC-1, n=1): >16 µg/mL
- MICs range (P. mirabilis; P. mirabilis CTX-M-14, n=1): >16 µg/mL
- MICs range (P. mirabilis; P. mirabilis CTX-M-15, n=1): >16 µg/mL
- MICs range (P. mirabilis; P. mirabilis PER-1, n=1): >16 µg/mL
- MICs range (P. mirabilis; P. mirabilis TEM-21, n=1): 0.25 µg/mL
- MICs range (P. mirabilis; P. mirabilis TEM-52, n=1): >16 µg/mL
- MICs range (E. aerogenes [2]; E. aerogenes TEM-24, n=6): 0.5 to 8 µg/mL
- MICs range (E. aerogenes [2]; E. aerogenes TEM-121, n=1): <0.06 µg/mL
- MICs range (E. aerogenes [2]; E. aerogenes Wild-type, chromosome-encoded cephalosporinase, n=1): 0.094 µg/mL
- MICs range (M. morganii): 0.03 to 0.75 µg/mL
- MICs range (C. brakii): 0.12 µg/mL
- MICs range (E. sakazakii): >16 µg/mL
- MICs range (S. ficaria): 0.12 µg/mL
- ESBL NDP Test from: Blood culture (E. aerogenes [3]; E. aerogenes BN 1113 0225, Wild-type): −
- ESBL NDP Test from: Blood culture (E. aerogenes [3]; E. aerogenes E2O15, TEM-121): +
- ESBL NDP Test from: Blood culture (C. freundii [4]): −
